# Test results published in patent US12427192B2, “Water soluble adjuvant and composition containing same” (Sumitomo Pharma Co., Ltd., priority 2019, dated 2025).
# Assays:
# [1] = tested on: HLA-A*02:01 transgenic mouse; assay: Test 14: in vivo adjuvant activity, cocktail vaccine i (oily suspension formulation), IFNγ ELISPOT; conditions: added to cocktail vaccine i (oily suspension formulation); 0.04 nmol or 0.4 nmol per body, twice; FIG. 15 and 16
# Protocol: (§1) Evaluation of In Vivo Adjuvant Activity in HLA-A*02:01 Transgenic Mouse
# The in vivo adjuvant activity of the compound of Example 1 was evaluated in the following procedure. To a cocktail vaccine (oily suspension formulation) comprising Compound of formula 4 prepared in Reference example 8 and Peptide SEQ ID No. 3 prepared in Reference example 3 (hereinafter, referred to as “cocktail vaccine i”) was added the compound prepared in Example 1 to prepare a vaccine. The vaccine was administered to a HLA-A*02:01 transgenic mouse, and the adjuvant activity of the vaccine was evaluated by the method of testing antigen-specific CTL induction.
# For example, the above oily suspension formulation was prepared as follows. […]
# Cocktail vaccine i was injected to mice intradermally at the tail base area in an amount for administering 300 μg of Compound of formula 4 per body and 225 μg of Peptide SEQ ID No. 3 per body. […] Then, after removal of the supernatant from the wells, stained spots on the ELISPOT plate were counted.
# [2] = tested on: HLA-A*02:01 transgenic mouse; assay: Test 12: in vivo adjuvant activity, cocktail vaccine g (emulsified composition 2), IFNγ ELISPOT; conditions: added to cocktail vaccine g (emulsified composition 2); 0.04 nmol or 0.4 nmol per body, twice; FIG. 12 and 13
# Protocol: as §1
# The in vivo adjuvant activity of the compound of Example 1 was evaluated in the following procedure. To a cocktail vaccine (emulsified composition 2) comprising Compound of formula 4 prepared in Reference example 8 and Peptide SEQ ID No. 3 prepared in Reference example 3 (hereinafter, referred to as “cocktail vaccine g”) was added the compound prepared in Example 1 to prepare a vaccine. The vaccine was administered to a HLA-A*02:01 transgenic mouse, and the adjuvant activity of the vaccine was evaluated by the method of testing antigen-specific CTL induction.
# For example, the above emulsified composition 2 was prepared as follows. 95.8% (w/w) of medium-chain triglyceride (MYGLYOL 812), 3% (w/w) of PEG-30 dipolyhydroxy stearate, and 1.2% (w/w) of polysorbate 80 were mixed to prepare an oil-phase mixture. The amount of the preparation was adjusted as appropriate. Compound of formula 4 and Peptide SEQ ID No. 3 were mixed with pH 2.5 buffer (10 mM tartaric acid, 10% trehalose) to adjust each concentration to 3 mg/mL and 2.25 mg/mL, respectively. The prepared peptide dilution was mixed with an equal volume of the oil-phase mixture to give an emulsified product, cocktail vaccine g. […] Then, after removal of the supernatant from the wells, stained spots on the ELISPOT plate were counted.
structure (smiles),measurement,setting,value
"CCCCCNc1nc(N)nc(C)c1Cc1ccc(CN(C)CCOCCOCCOCCOCCO)cc1OC [Example 1, 1-(4-{[2-amino-4-methyl-6-(pentylamino)pyrimidin-5-yl]methyl}-3-methoxyphenyl)-2-methyl-5,8,11,14-tetraoxa-2-azahexadecan-16-ol·trifluoroacetate]",CTL counts responsive to Peptide SEQ ID No. 1 or SEQ ID No. 4 compared with adding no compound,[1],more
same,CTL counts responsive to Peptide SEQ ID No. 1 or SEQ ID No. 4 compared with adding no compound,[2],more
